Measured values taken from patent US20210134398A1, “Combinatorial Chemistry Computational System and Enhanced Selection Method” (Southern Methodist University, priority 2019, published 2021).

How the values were obtained:
[1] = molecular target: P-gp (P-gp over-expressing cell line, DU145TXR) (Homo sapiens, UniProt P08183); assay: Cellular accumulation of experimental compounds by LC-MS/MS with and without tariquidar
Method: Stimulation of basal ATPase by 29-variants was used as an indicator that a compound may be a P-gp transport substrate. Effects on stimulated P-gp ATPase activity indicated whether a compound directly interfered with ATP usage by the protein (***, p<0.001; **, p<0.01; *, p<0.1; NS, not significant). Quantitative cellular accumulation of 29-variants was performed using LC-MS/MS and is presented as a ratio of the cellular amounts of 29-variants in the presence of P-gp inhibitor, tariquidar, divided by amounts accumulated in its absence. […] Binding of an ATP analog, SL-ATP, to P-gp was used to determine whether ATP binding to P-gp was affected by the 29-variants. Values +/−standard deviations are shown for at least three different P-gp preparations and three independent SL-ATP titration experiments. The values for SL-ATP binding in the presence of 29 were taken directly from Brewer et al. (2014).
Intracellular accumulation of compound 29 variants. Cell accumulation assays for each of the 29 variants were performed as in reference^28 to more directly assess whether the compounds were indeed transport substrates for P-gp.
Cellular Accumulation Assays for Experimental P-gp Inhibitors. Cells used (DU145TXR), cell culturing, cell exposure to compounds, cellular handling and extractions were performed as described in^28. LC-MS/MS methods were performed as described in^71 and as modified in^28.

[2] = tested on: P-gp overexpressing prostate cancer cell line, DU145TXR; assay: MTT cell viability assay, resensitization to paclitaxel; format: cell-based, human; details: Homo sapiens; paclitaxel alone, DU145TXR, 48 hours; read-out: IC50 PTX, PTX alone
From the text: The Group 1 ChemGen/docking routine produced variants of P-gp inhibitor 29 resensitize a multidrug resistant, P-gp overexpressing prostate cancer cell line to paclitaxel. The mitochondrial reduction potential of cells is often used as an indicator for cell viability using MTT assays^4. Using these assays it was observed that the five Group 1 derivatives of 29 predicted through the ChemGen/docking routine and synthesized here, 216, 227, 231, 541 and 551, re-sensitized the P-gp overexpressing prostate cancer cell line, DU145TXR^33, to the chemotherapeutic, paclitaxel (FIG. 12, showing results of assays at concentrations of 3 μM, 5 μM, 7 μM, and 10 μM).
Cytotoxicity of the chemotherapeutic, paclitaxel (PTX) to P-gp overexpressing prostate cancer cells, DU145TXR, was determined in the absence and presence of the ChemGen designed 29-variants, 216, 227, 231, 541 and 551. For each experimental compound IC50 values of PTX alone or in the presence of inhibitors, fold improvement of PTX sensitivity in the presence of inhibitor, and fold improvement of PTX sensitivity by variants compared to parental compound 29 are given.
Effects of Group 2 variants on the paclitaxel sensitivity of P-glycoprotein overexpressing prostate cancer cells, DU145TXR. MTT assays were again used to assess the efficacy of the new structural 29-variants on sensitizing the chemotherapy-resistant prostate cancer cell line, DU145TXR, to paclitaxel, at concentrations of 3 μM, 5 μM, 7 μM, and 10 μM as shown in FIG. 15 and Table 4.
MTT cell viability assay. Cells were trypsinized from monolayers and seeded with 3000 cells in 150 μL of complete medium in a 96 well plate. After 24 hours, cells were treated for 48 hours with paclitaxel (Acros Organics, NJ) and/or P-gp inhibitory compounds dissolved in DMSO, or DMSO controls. All additions were diluted into complete medium. After 48 hours of treatment, MTT assays were performed as described^41 using 5 mg/mL of MTT (Acros Organics, NJ) solution prepared in PBS (137 mM NaCl, 2.7 mM KCl, 10 mM Na2HPO4, 1.8 mM KH2PO4, pH 7.4). After 4 hours of incubation with MTT, the media was removed and the formazan crystals were dissolved in 100 μL of DMSO. The absorbance at 570 nm was then measured using a BioTek Cytation 5 imaging multi-mode reader (Bio-Tek, Winooski, Vt.). Percent viability was calculated using DMSO treated cells as representative for 100% viability, according to Equation 1. Background absorbance was determined using MTT and complete medium without cells and subtracted from all the test values. Equation 1:
The results were plotted as the mean with standard deviation (SD) of eight replicates per concentration from at least two independent experiments with n=8. The graphical representations and IC50 values were determined using four parameter variable slope non-linear regression, using the following equation: Y=bottom+(top-bottom)/(1+10^((log IC50−X)*Hill Slope) (GraphPad Prism™, La Jolla Calif., USA, Version 6.05). The reported “fold sensitization” was calculated as follows, per Equation 2: […]

P-gp (P-gp over-expressing cell line, DU145TXR), sequence (P08183 whole entry): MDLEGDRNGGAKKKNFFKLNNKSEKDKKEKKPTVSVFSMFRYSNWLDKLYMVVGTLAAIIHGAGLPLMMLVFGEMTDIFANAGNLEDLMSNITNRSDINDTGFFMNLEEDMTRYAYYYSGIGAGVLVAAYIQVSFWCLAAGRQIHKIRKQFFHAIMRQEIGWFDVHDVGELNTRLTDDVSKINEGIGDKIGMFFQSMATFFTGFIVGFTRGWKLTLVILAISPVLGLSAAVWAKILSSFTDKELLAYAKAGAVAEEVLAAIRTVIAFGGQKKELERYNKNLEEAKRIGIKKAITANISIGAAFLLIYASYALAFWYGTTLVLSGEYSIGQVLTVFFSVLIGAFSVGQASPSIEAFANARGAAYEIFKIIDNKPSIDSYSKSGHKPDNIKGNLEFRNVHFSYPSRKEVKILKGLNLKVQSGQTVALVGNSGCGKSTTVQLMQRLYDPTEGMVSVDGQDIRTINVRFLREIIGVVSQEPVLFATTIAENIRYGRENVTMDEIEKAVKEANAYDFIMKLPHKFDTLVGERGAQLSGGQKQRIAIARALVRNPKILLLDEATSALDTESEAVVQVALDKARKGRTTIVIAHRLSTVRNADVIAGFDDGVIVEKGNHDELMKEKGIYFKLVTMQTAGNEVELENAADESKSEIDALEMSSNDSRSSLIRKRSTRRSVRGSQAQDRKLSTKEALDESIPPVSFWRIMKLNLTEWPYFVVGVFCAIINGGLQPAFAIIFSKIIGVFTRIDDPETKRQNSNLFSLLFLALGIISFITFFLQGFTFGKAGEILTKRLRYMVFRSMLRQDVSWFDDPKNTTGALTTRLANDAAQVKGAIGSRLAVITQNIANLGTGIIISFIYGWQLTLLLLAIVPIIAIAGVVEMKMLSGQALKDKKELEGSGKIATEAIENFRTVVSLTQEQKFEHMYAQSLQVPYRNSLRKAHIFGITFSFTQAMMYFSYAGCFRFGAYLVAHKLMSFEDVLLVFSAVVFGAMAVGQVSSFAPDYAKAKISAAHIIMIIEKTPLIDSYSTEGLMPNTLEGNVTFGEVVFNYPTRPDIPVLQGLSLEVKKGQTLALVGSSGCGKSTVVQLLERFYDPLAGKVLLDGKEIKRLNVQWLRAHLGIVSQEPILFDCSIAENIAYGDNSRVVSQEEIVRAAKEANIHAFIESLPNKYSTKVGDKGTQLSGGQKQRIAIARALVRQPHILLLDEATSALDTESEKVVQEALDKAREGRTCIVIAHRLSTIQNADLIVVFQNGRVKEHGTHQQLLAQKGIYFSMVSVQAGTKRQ

Transport substrate for P-gp ([1]; DU145TXR accumulation with/without tariquidar (and basal ATPase))	Intracellular accumulation in absence vs presence of tariquidar (in words) ([1]; DU145TXR, LC-MS/MS)	Compound	IC50 [2] [nM]
good transport substrate for P-gp	very strong cellular accumulation	COc1cccc2c1C(=O)c1c(O)c3c(c(O)c1C2=O)C[C@@](O)(C(C)=O)C[C@@H]3O[C@H]1C[C@H](N)[C@H](O)[C@H](C)O1 [Daunorubicin, reference compound]	–
–	–	CC(=O)O[C@H]1C(=O)[C@@]2(C)[C@H]([C@H](OC(=O)c3ccccc3)[C@]3(O)C[C@H](OC(=O)[C@H](O)[C@@H](NC(=O)c4ccccc4)c4ccccc4)C(C)=C1C3(C)C)[C@]1(OC(C)=O)CO[C@@H]1C[C@@H]2O [PTX, paclitaxel, reference compound]	2120
